According to ChEMBL document CHEMBL4385605, “Synthesis and Structure-Affinity Relationships of Spirocyclic Benzopyrans with Exocyclic Amino Moiety” (J Med Chem, 2019):
pKi: −log10 of the molar value. Calls of active or inactive are those of the source. No cut-off for these calls is given here.

What was measured:
Mu-type opioid receptor = Mu-type opioid receptor (Cavia porcellus, UniProt P97266); assay: Displacement of [3H]DAMGO from mu opioid receptor in guinea pig brain membranes after 120 mins by scintillation counting analysis; format: cell membranes
Mu-type opioid receptor, sequence (P97266 whole entry): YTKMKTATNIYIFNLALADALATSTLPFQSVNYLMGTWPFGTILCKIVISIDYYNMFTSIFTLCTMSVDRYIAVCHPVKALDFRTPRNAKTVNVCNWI

[1] = molecular target: Kappa-type opioid receptor (Cavia porcellus, UniProt P41144); assay: Displacement of [3H]U69,593 from kappa opioid receptor in guinea pig brain membrane after 120 mins by scintillation counting analysis; format: cell membranes
Kappa-type opioid receptor, sequence (P41144 whole entry): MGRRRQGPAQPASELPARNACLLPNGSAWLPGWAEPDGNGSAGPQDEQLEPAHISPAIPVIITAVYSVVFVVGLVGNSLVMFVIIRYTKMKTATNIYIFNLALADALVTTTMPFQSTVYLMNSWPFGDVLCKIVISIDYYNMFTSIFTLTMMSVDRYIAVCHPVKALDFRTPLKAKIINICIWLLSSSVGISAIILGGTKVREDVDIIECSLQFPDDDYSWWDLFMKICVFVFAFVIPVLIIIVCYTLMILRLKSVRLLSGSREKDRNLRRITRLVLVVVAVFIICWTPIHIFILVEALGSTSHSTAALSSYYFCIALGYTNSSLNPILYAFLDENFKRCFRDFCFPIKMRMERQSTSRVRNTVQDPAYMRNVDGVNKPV

[2] = molecular target: Sigma intracellular receptor 2 (Homo sapiens, UniProt Q5BJF2); assay: Displacement of [3H]-di-o-tolylguanidine from sigma2 receptor in human RT4 cell membranes incubated for 120 mins in the presence of sigma1 receptor ligand (+)-pentazocine by scintillation counting method
Sigma intracellular receptor 2 (Homo sapiens, UniProt Q5BJF2), sequence (Q5BJF2 whole entry): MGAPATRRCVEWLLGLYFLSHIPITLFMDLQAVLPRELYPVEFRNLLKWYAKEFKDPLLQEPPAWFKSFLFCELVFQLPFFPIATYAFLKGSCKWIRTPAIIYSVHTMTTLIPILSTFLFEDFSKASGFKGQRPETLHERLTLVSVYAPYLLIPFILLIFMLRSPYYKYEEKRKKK

[3] = Selectivity ratio of Ki for displacement of [3H]DTG from sigma2 receptor in rat liver membranes to Ki for displacement of (+)-[3H]pentazocine from sigma 1 receptor in guinea pig brain cortex membranes; format: cell membranes
[4] = molecular target: T1, Sigma intracellular receptor 2 (Rattus norvegicus, UniProt Q5U3Y7); assay: Displacement of [3H]-di-o-tolylguanidine from sigma2 receptor in rat liver membranes incubated for 120 mins in the presence of sigma1 receptor ligand (+)-pentazocine by scintillation counting method; format: cell membranes
T1 sequence (Q5U3Y7 whole entry): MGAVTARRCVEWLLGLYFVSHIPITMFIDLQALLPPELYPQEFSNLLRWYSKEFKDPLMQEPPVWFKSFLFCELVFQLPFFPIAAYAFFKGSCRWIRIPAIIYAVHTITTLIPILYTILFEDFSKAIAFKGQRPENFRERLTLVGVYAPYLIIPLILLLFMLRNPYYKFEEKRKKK

[5] = molecular target: Sigma non-opioid intracellular receptor 1 (Cavia porcellus, UniProt Q60492); assay: Displacement of [3H](+)-pentazocine from sigma 1 receptor in guinea pig brain cortex membranes after 120 mins by scintillation counting analysis; format: cell membranes
Sigma non-opioid intracellular receptor 1, sequence (Q60492 whole entry): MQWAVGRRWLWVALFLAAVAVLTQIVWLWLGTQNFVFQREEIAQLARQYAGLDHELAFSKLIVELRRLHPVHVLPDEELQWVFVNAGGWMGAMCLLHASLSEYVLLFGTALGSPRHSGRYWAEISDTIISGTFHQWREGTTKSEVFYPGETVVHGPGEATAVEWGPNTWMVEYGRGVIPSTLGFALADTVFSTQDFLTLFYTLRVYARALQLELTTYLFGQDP

[6] = molecular target: Delta-type opioid receptor (Rattus norvegicus, UniProt P33533); assay: Displacement of [3H]DPDPE from delta opioid receptor in rat membranes after 120 mins by scintillation counting analysis; format: cell membranes
Delta-type opioid receptor, sequence (P33533 whole entry): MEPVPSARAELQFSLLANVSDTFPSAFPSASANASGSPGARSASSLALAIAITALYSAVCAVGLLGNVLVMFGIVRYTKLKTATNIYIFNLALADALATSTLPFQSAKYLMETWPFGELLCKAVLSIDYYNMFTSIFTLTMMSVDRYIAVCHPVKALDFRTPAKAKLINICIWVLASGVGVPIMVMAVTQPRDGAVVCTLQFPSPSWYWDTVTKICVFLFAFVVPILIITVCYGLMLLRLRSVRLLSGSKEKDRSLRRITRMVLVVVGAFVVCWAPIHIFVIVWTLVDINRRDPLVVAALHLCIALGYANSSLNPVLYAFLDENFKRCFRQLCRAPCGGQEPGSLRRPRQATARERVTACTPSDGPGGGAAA

Sus scrofa = species: Sus scrofa; assay: Displacement of [3H]-(+)-MK-801 from PCP binding site of NMDA receptor in pig brain cortex membranes up to 1 uM after 120 mins by scintillation counting analysis; format: cell membranes
[7] = molecular target: Mu-type opioid receptor (Cavia porcellus) (UniProt P97266); assay: Displacement of [3H]DAMGO from mu opioid receptor in guinea pig brain membranes at 1 uM after 120 mins by scintillation counting analysis relative to control; format: cell membranes
Mu-type opioid receptor (Cavia porcellus), sequence (P97266 whole entry): as the sequence (P97266 whole entry) above

[8] = molecular target: Kappa-type opioid receptor (Cavia porcellus) (UniProt P41144); assay: Displacement of [3H]U69,593 from kappa opioid receptor in guinea pig brain membrane at 1 uM after 120 mins by scintillation counting analysis relative to control; format: cell membranes
Kappa-type opioid receptor (Cavia porcellus), sequence (P41144 whole entry): as the sequence (P41144 whole entry) above

[9] = molecular target: Delta-type opioid receptor (Rattus norvegicus) (UniProt P33533); assay: Displacement of [3H]DPDPE from delta opioid receptor in rat membrane at 1 uM after 120 mins by scintillation counting analysis relative to control; format: cell membranes
Delta-type opioid receptor (Rattus norvegicus), sequence (P33533 whole entry): as the sequence (P33533 whole entry) above

Row | Structure (SMILES) | pKi (Mu-type opioid receptor) | pKi [1] | pKi [2] | Ratio Ki [3] | pKi [4] | pKi [5] | pKi [6] | Activity (Sus scrofa) | inhibition [7] | inhibition [8] | inhibition [9]
1 | COC1Cc2ccccc2[C@]2(CC[C@@H](NCC3CCCCC3)CC2)O1 (stereo not given in full) | 6.45 | 7.02 |  | 5 to 10 | 6.89 | 7.72 | 6.64 | inactive |  |  | 
2 | CCOC1Cc2ccccc2[C@]2(CC[C@H](NCC3CCCCC3)CC2)O1 (stereo not given in full) | 6.31 | 6.13 | 7.34 | 5 to 10 | 6.51 | 7.44 | 6.36 |  |  |  | 
3 | CCOC1Cc2ccccc2[C@]2(CC[C@@H](N(C)CC3CCCCC3)CC2)O1 (stereo not given in full) | 6.06 |  | 7.03 | 24 | 6.44 | 7.82 |  |  |  | 24% | 13%
4 | COC1O[C@]2(CC[C@H](NCC3CCCCC3)CC2)c2ccccc21 (stereo not given in full) | 6.56 | 6.30 | 7.41 | 5 to 10 | 6.88 | 7.72 | 6.94 |  |  |  | 
5 | COC1O[C@]2(CC[C@@H](NCc3ccccc3)CC2)c2ccccc21 (stereo not given in full) | 6.11 | 5.94 |  | 5 to 10 | 6.12 | 7.30 | 6.18 |  |  |  | 
6 | c1ccc2c(c1)CCO[C@]21CC[C@H](NCC2CCCCC2)CC1 | 6.94 | 6.63 | 8.10 | 5 to 10 | 7.00 | 7.82 | 6.75 |  |  |  | 
7 | COC1Cc2ccccc2[C@]2(CC[C@H](NCc3ccccc3)CC2)O1 (stereo not given in full) |  |  | 6.64 |  |  |  |  | inactive | 20% | 27% | 41%
8 | c1ccc(CN[C@H]2CC[C@]3(CC2)OCCc2ccccc23)cc1 |  |  |  | 5 to 10 | 6.30 | 7.01 |  |  | 0% | 0% | 20%
9 | COC1O[C@]2(CC[C@H](N(C)CC3CCCCC3)CC2)c2ccccc21 (stereo not given in full) | 6.64 | 6.19 | 8.03 | 21 | 6.79 | 8.10 | 6.60 |  |  |  | 
10 | CCOC1Cc2ccccc2[C@]2(CC[C@@H](NCC3CCCCC3)CC2)O1 (stereo not given in full) | 6.73 | 7.07 | 7.80 | 5 to 10 | 6.79 | 6.74 | 6.73 |  |  |  | 
11 | CN(CC1CCCCC1)[C@H]1CC[C@@]2(CC1)OCCc1ccccc12 |  |  | 7.92 | 22 | 6.76 | 8.10 | 6.73 |  |  | 23% | 
12 | c1ccc2c(c1)CCO[C@]21CC[C@@H](NCC2CCCCC2)CC1 | 6.08 |  | 7.48 | 5 to 10 | 7.08 | 7.74 |  |  |  | 16% | 11%
13 | CN(CC1CCCCC1)[C@H]1CC[C@@]2(CC1)OC=Cc1ccccc12 | 6.79 |  | 7.80 | 5 to 10 | 7.09 | 8.31 |  |  |  |  | 11%
14 | COC1Cc2ccccc2[C@]2(CC[C@H](NCC3CCCCC3)CC2)O1 (stereo not given in full) | 6.34 |  |  | 5 to 10 | 7.00 | 8.24 |  | inactive |  | 28% | 33%

Second part, the compound after the results:

Row | pKi (Mu-type opioid receptor) | pKi [1] | pKi [2] | Ratio Ki [3] | pKi [4] | pKi [5] | pKi [6] | Activity (Sus scrofa) | inhibition [7] | inhibition [8] | inhibition [9] | Structure (SMILES)
15 | 6.59 | 6.22 | 8.15 | 5 to 10 | 7.28 | 7.92 | 6.32 |  |  |  |  | C1=Cc2ccccc2[C@]2(CC[C@@H](NCC3CCCCC3)CC2)O1
16 |  |  | 8.17 | 5 to 10 | 7.17 | 8.24 | 6.68 |  | 15% | 18% |  | C1=Cc2ccccc2[C@]2(CC[C@H](NCC3CCCCC3)CC2)O1
17 |  |  | 8.26 | 5 to 10 | 7.52 | 8.51 | 6.25 |  | 13% | 10% |  | CN(CC1CCCCC1)[C@H]1CC[C@]2(CC1)OCCc1ccccc12
18 | 6.41 |  | 8.34 | 5 to 10 | 7.48 | 8.64 |  |  |  |  | 38% | CN(CC1CCCCC1)[C@H]1CC[C@]2(CC1)OC=Cc1ccccc12
19 | 6.53 |  | 7.85 | 5 to 10 | 7.38 | 8.09 | 6.45 |  |  | 18% |  | CCOC1Cc2ccccc2[C@]2(CC[C@H](N(C)CC3CCCCC3)CC2)O1 (stereo not given in full)
20 | 6.30 |  | 7.96 | 5 to 10 | 7.28 | 7.70 | 6.84 |  |  | 23% |  | COC1O[C@]2(CC[C@@H](NCC3CCCCC3)CC2)c2ccccc21 (stereo not given in full)
21 |  |  | 8.12 | 5 to 10 | 7.15 | 8.09 | 6.25 |  | 16% | 0% |  | COC1O[C@]2(CC[C@@H](N(C)CC3CCCCC3)CC2)c2ccccc21 (stereo not given in full)
